Source: ChEMBL document CHEMBL1909046, “DrugMatrix in vitro pharmacology data”

What was measured:
[1] = DRUGMATRIX: Glutamate, Kainate radioligand binding (ligand: [3H] Kainic acid); type: cell membranes, Rattus norvegicus, Wistar, Brain, Membrane; conditions: Not Active = under 50% inhibition at 10 µM
Glycine receptor = Glycine receptor (Rattus norvegicus, UniProt P22771+P24524+P07727+P20781); type: cell membranes, Wistar, Spinal cord, Membrane; also: in other assays of this panel Not Active means under 50% inhibition at 10 µM
[2] = target: Beta-3 adrenergic receptor (Homo sapiens, UniProt P13945); assay: DRUGMATRIX: Adrenergic beta3 radioligand binding (ligand: [125I] Cyanopindolol); type: cell membranes, HEK293, Membrane; conditions: hek293; Not Active = under 50% inhibition at 10 µM
[3] = target: C-C chemokine receptor type 2 (Homo sapiens, UniProt P41597); type: cell membranes, CHO-K1, Membrane; conditions: cho-k1; also: in other assays of this panel Not Active means under 50% inhibition at 10 µM
Thromboxane-A synthase = target: T1, Thromboxane-A synthase (Homo sapiens, UniProt P24557); assay: biochemical; type: tissue-based, Platelet; conditions: platelet;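 also: enzyme inhibition assay with PGH2 supplied as substrate; in other assays of this panel Not Active means under 50% inhibition at 10 µM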
T1 sequence (P24557 whole entry): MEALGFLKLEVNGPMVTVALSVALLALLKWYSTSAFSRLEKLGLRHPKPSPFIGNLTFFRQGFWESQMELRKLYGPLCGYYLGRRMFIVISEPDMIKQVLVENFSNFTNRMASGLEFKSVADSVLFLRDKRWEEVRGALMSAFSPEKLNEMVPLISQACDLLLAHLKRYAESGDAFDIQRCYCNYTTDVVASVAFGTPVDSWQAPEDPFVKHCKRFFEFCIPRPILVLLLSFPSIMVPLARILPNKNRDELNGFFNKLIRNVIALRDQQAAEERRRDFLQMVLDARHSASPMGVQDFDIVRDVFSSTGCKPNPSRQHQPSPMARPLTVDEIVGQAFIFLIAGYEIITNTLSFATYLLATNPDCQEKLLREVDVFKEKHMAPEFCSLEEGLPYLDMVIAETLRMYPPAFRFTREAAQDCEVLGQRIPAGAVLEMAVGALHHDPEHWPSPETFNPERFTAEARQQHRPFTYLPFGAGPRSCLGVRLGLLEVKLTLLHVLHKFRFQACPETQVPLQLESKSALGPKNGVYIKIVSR

[4] = target: Tyrosine-protein kinase Lck (Homo sapiens, UniProt P06239); assay: DRUGMATRIX: Protein Tyrosine Kinase, LCK enzyme inhibition (substrate: Poly(Glu:Tyr)); type: cell-based, Insect cells; conditions: insect cells; Not Active = under 50% inhibition at 10 µM
[5] = target: Platelet-activating factor receptor (Homo sapiens, UniProt P25105); assay: biochemical; type: tissue-based; conditions: platelet; also: in other assays of this panel Not Active means under 50% inhibition at 10 µM
[6] = target: Beta-2 adrenergic receptor (Homo sapiens, UniProt P07550); assay: DRUGMATRIX: Adrenergic beta2 radioligand binding (ligand: [3H] CGP-12177); type: cell membranes, Membrane; conditions: cho; Not Active = under 50% inhibition at 10 µM
[7] = target: T2, C-X-C chemokine receptor type 2 (Homo sapiens, UniProt P25025); type: cell membranes, Membrane; conditions: cho-k1; also: in other assays of this panel Not Active means under 50% inhibition at 10 µM
T2 sequence (P25025 whole entry): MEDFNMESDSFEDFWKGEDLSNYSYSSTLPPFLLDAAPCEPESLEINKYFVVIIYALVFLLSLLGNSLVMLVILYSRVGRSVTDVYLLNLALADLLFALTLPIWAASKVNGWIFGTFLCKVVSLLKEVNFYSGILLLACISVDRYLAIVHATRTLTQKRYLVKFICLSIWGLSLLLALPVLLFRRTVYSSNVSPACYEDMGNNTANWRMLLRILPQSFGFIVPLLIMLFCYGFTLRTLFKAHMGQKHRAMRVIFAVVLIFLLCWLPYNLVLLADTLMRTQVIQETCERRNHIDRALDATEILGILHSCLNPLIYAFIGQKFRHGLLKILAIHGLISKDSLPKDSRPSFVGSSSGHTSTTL

Carbonic anhydrase 2 = Carbonic anhydrase 2 (Homo sapiens, UniProt P00918); assay: DRUGMATRIX: Carbonic Anhydrase II enzyme inhibition (substrate: 4-Nitrophenyl acetate (4-NPA)); type: tissue-based, Erythrocyte; conditions: erythrocyte; Not Active = under 50% inhibition at 10 µM
[8] = target: Kappa-type opioid receptor (Homo sapiens, UniProt P41145); assay: DRUGMATRIX: Opiate kappa (OP2, KOP) radioligand binding (ligand: [3H] Diprenorphine); type: cell membranes, HEK293, Membrane; conditions: hek293; Not Active = under 50% inhibition at 10 µM
[9] = target: T3, Cysteinyl leukotriene receptor 1 (Homo sapiens, UniProt Q9Y271); type: cell membranes, CHO-K1, Membrane; conditions: cho-k1; also: in other assays of this panel Not Active means under 50% inhibition at 10 µM
T3 sequence (Q9Y271 whole entry): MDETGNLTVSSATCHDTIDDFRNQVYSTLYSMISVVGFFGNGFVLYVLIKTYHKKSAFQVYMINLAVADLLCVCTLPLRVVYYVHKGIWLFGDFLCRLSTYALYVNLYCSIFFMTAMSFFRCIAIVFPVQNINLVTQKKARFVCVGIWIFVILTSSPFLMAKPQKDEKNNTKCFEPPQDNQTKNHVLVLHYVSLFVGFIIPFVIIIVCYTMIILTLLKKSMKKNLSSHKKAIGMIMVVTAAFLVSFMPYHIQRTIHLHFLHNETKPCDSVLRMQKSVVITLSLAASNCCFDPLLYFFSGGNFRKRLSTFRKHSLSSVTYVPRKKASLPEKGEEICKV

Chain of Beta-2 adrenergic receptor (P07550 whole entry): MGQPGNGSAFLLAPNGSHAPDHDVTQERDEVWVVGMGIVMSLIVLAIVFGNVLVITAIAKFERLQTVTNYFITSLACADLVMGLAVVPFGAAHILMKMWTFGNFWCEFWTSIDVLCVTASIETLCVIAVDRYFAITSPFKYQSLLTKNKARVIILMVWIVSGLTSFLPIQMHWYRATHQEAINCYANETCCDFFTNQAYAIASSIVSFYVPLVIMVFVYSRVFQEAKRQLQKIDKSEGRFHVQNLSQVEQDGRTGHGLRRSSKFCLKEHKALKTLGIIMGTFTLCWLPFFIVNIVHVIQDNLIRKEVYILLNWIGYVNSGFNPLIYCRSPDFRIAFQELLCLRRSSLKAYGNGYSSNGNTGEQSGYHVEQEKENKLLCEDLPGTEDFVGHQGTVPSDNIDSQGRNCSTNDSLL
Chain of Platelet-activating factor receptor (P25105 whole entry): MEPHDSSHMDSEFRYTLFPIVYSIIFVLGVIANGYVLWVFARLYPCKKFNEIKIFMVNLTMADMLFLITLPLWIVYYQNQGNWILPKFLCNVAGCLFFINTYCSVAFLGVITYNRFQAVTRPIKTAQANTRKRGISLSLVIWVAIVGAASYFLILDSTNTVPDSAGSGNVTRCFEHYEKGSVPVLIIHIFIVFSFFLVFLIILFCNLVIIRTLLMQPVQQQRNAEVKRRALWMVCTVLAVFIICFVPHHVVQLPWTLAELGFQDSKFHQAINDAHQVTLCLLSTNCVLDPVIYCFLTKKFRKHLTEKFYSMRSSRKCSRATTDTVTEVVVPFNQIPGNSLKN
Chain of Beta-3 adrenergic receptor (P13945 whole entry): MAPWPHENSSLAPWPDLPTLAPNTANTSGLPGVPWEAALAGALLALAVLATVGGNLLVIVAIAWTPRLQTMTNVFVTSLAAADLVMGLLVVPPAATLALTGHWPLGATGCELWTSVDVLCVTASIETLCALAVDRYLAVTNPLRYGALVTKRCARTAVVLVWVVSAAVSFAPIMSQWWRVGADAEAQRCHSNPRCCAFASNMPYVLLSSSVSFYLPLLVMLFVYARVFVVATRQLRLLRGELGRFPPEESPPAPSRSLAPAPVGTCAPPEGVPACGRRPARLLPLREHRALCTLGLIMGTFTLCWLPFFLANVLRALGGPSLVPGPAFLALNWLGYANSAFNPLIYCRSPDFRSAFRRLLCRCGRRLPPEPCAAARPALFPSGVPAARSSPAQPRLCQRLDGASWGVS
Chain of Kappa-type opioid receptor (P41145 whole entry): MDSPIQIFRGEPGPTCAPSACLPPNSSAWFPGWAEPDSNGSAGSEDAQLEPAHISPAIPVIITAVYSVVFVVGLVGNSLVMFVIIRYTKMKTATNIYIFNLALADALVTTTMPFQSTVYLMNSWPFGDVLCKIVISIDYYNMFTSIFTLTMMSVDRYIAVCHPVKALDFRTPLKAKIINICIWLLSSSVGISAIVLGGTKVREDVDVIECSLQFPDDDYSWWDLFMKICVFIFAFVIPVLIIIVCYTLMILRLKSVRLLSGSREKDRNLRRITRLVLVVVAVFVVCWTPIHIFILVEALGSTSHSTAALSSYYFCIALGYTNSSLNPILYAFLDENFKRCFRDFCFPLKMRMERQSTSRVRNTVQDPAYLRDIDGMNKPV
Chain of Tyrosine-protein kinase Lck (P06239 whole entry): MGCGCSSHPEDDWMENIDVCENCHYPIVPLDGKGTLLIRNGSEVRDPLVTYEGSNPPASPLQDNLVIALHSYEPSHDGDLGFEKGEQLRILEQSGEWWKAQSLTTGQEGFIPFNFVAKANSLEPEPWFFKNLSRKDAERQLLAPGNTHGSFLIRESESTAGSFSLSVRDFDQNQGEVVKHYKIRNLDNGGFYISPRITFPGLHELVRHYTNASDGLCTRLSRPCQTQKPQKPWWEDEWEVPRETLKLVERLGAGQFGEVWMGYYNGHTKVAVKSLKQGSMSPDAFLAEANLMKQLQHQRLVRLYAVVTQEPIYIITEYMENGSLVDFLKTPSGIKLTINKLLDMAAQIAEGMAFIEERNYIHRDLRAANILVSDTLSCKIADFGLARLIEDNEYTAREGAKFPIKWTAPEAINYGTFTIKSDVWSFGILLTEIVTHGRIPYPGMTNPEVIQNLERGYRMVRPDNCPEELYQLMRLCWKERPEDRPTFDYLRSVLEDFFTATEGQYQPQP
Chain of C-C chemokine receptor type 2 (P41597 whole entry): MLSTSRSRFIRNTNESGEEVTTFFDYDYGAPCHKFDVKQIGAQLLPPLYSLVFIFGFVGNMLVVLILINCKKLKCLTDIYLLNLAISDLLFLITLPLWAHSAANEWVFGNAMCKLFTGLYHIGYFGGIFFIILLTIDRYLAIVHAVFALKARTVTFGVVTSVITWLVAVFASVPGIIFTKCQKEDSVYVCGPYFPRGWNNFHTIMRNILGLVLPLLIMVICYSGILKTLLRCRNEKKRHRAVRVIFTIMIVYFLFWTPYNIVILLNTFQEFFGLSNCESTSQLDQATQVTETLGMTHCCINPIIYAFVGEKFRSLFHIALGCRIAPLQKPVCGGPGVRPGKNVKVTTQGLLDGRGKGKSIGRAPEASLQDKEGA

CC1CN(c2cc3c(cc2F)c(=O)c(C(=O)O)cn3-c2ccc(F)cc2F)CCN1 (stereo unspecified) [TEMAFLOXACIN]
Not Active: IC50 [1] | Ki [1] | IC50 (Glycine receptor) | IC50 [2] | IC50 [3] | IC50 (Thromboxane-A synthase) | IC50 [4] | IC50 [5] | IC50 [6] | IC50 [7] | IC50 (Carbonic anhydrase 2) | IC50 [8] | IC50 [9]

CC1(C)[C@H]2CC[C@]1(C)C(=O)C2 [(-)-CAMPHOR]
Not Active: IC50 [1] | Ki [1] | IC50 (Glycine receptor) | IC50 [2] | IC50 [3] | IC50 (Thromboxane-A synthase) | IC50 [4] | IC50 [5] | IC50 [6] | IC50 [7] | IC50 (Carbonic anhydrase 2) | IC50 [8] | IC50 [9]

CC(CCc1ccccc1)NCC(O)c1ccc(O)c(C(N)=O)c1 (stereo unspecified) [LABETALOL]
Not Active: IC50 [1] | Ki [1] | IC50 (Glycine receptor) | IC50 [2] | IC50 [3] | IC50 (Thromboxane-A synthase) | IC50 [4] | IC50 [5] | IC50 [7] | IC50 (Carbonic anhydrase 2) | IC50 [8] | IC50 [9]

CN1[C@@H]2CC[C@H]1C[C@@H](OC(=O)c1c[nH]c3ccccc13)C2 [TROPISETRON]
Not Active: IC50 [1] | Ki [1] | IC50 (Glycine receptor) | IC50 [2] | IC50 [3] | IC50 (Thromboxane-A synthase) | IC50 [4] | IC50 [5] | IC50 [6] | IC50 [7] | IC50 (Carbonic anhydrase 2) | IC50 [8] | IC50 [9]

NC(=O)c1ncn([C@@H]2O[C@H](CO)[C@@H](O)[C@H]2O)n1 [RIBAVIRIN]
Not Active: IC50 [1] | Ki [1] | IC50 (Glycine receptor) | IC50 [2] | IC50 [3] | IC50 (Thromboxane-A synthase) | IC50 [4] | IC50 [5] | IC50 [6] | IC50 [7] | IC50 (Carbonic anhydrase 2) | IC50 [8] | IC50 [9]

O=C(CCCN1CCC(O)(c2ccc(Cl)cc2)CC1)c1ccc(F)cc1 [HALOPERIDOL]
Not Active: IC50 (Glycine receptor) | IC50 [2] | IC50 [3] | IC50 (Thromboxane-A synthase) | IC50 [4] | IC50 [5] | IC50 [6] | IC50 [7] | IC50 (Carbonic anhydrase 2) | IC50 [8] | IC50 [9]

CN(C)CCCN1c2ccccc2CCc2ccc(Cl)cc21 [CLOMIPRAMINE]
Not Active: IC50 (Glycine receptor) | IC50 [2] | IC50 [3] | IC50 (Thromboxane-A synthase) | IC50 [4] | IC50 [5] | IC50 [6] | IC50 [7] | IC50 (Carbonic anhydrase 2) | IC50 [8] | IC50 [9]
